Publication PMC2248166, “Quantitative peptide binding motifs for 19 human and mouse MHC class I molecules derived using positional scanning combinatorial peptide libraries” (Immunome Research, 2008)

Tests used:
HLA A*3001 = HLA A*3001 (Homo sapiens, UniProt P04439, D140H/D185E/E176W/F33S/G80R/H175R/K168Q/R138E/R41S); assay: biochemical; assay type: binding
HLA A*3201 = HLA A*3201 (Homo sapiens, UniProt P04439, A270S/D101S/D185E/E176V/E277Q/F133L/G103R/G107R/G231S/H175R/I121M/I218V/I322F/K168Q/L105A/L300P/L318F/M331R/P208A/P217A/Q94H/R106L/R138Q/S129P/T104I/T323A/T345S/V100E/V321M/V358M); assay: biochemical; assay type: binding
HLA A*6802 = HLA A*6802 (Homo sapiens, UniProt P04439, A269V/D140Y/D185E/E176V/E277Q/E87N/F33Y/G231S/I121R/I166T/I218V/L180W/L300P/L318F/N151K/P208A/P217A/Q86R/R138H/R169H/S129P/T345S/V36M); assay type: binding
HLA B*0702 = HLA B*0702 (Homo sapiens, UniProt P01889); assay type: binding; conditions: positional scanning combinatorial 9-mer library; normalized to 1.0 for the best residue at each position
HLA B*0801 = HLA B*0801 (Homo sapiens, UniProt P01889, A93T/A95T/D138N/E176V/E187T/K202T/Q94N/R180D/S35A/V36M/Y33D/Y91F); assay: biochemical; assay type: binding
HLA B*1501 = HLA B*1501 (Homo sapiens, UniProt P01889, A329T/A93T/A95T/C349S/D201E/D98Y/E187L/E204Q/E69M/E70A/K202T/N87E/Q94N/R155S/R180W/S121R/S35A/S48A/V306I/V36M/Y140S/Y91S); assay: biochemical; assay type: binding
HLA B*1503 = HLA B*1503 (Homo sapiens, UniProt P01889, A329T/A93T/A95T/C349S/D201E/D98Y/E187L/E204Q/K202T/N87E/Q94N/R155S/R180L/S121R/S35A/V306I/V36M/Y140S/Y91S); assay: biochemical; assay type: binding
HLA B*2705 = HLA B*2705 (Homo sapiens, UniProt P01889, D138H/D201E/E176V/E204Q/G107R/H137Y/K202T/N104T/N87E/Q56L/Q94K/R106L/R155S/R180L/S101D/S121N/S48T/Y140D/Y33H/Y91C); assay type: binding; conditions: positional scanning combinatorial 9-mer library; normalized to 1.0 for the best residue at each position
HLA B*3501 = HLA B*3501 (Homo sapiens, UniProt P01889, A329T/A93T/A95T/C349S/D201E/D98Y/E176V/E187L/E204Q/E69T/I218V/K202T/L119I/Q94N/R155S/R180L/S121R/S35A/S48A/T118I/V127L/V306I/V36M/Y140S/Y91F); assay type: binding
HLA B*5101 = HLA B*5101 (Homo sapiens, UniProt P01889, A329T/A93T/A95T/C349S/D138N/D201E/D98Y/E187L/E204Q/E69T/G107R/I218V/K202T/L105A/L119W/N104I/Q94N/R106L/R155S/R180L/S101N/S121T/S35A/S48A/V306I/V36M/Y195H/Y91F); assay type: binding
HLA B*5301 = HLA B*5301 (Homo sapiens, UniProt P01889, A329T/A93T/A95T/C349S/D201E/D98Y/E176V/E187L/E204Q/E69T/G107R/I218V/K202T/L105A/L119I/N104I/Q94N/R106L/R155S/R180L/S101N/S121R/S35A/S48A/T118I/V127L/V306I/V36M/Y140S/Y91F); assay type: binding
HLA B*5401 = HLA B*5401 (Homo sapiens, UniProt P01889, A329T/C349S/D138N/D201E/E176V/E187T/E204Q/E69G/I76V/K202T/L119W/R155S/R180L/S121T/S35A/S48A/V127L/V306I/V36M/Y140L); assay type: binding
HLA B*5801 = HLA B*5801 (Homo sapiens, UniProt P01889, A329T/C349S/D201E/D98Y/E176V/E187L/E204Q/E69T/G107R/I218V/I90N/K202T/L105A/L119I/N104I/N87E/Q89R/Q94S/R106L/R155S/R180L/R86G/S101N/S121R/S35A/S48A/T118I/V127L/V306I/V36M/Y140S/Y91M); assay type: binding
HLA B*5802 = HLA B*5802 (Homo sapiens, UniProt P01889, A329T/C349S/D201E/D98Y/E176V/E187L/E204Q/E69T/G107R/I218V/I90N/K202T/L105A/N104I/N87E/Q89R/Q94S/R106L/R155S/R180L/R86G/S101N/S121W/S35A/S48A/V127L/V306I/V36M/Y140S/Y91M); assay type: binding
H-2 D^b = H-2 D^b (Mus musculus, UniProt P01899); assay type: binding
Chain of H-2 D^b (P01887 21-119): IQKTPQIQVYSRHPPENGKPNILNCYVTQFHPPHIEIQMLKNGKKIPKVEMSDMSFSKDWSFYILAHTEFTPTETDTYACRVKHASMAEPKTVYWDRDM
Chain of H-2 D^b (P01899 25-362): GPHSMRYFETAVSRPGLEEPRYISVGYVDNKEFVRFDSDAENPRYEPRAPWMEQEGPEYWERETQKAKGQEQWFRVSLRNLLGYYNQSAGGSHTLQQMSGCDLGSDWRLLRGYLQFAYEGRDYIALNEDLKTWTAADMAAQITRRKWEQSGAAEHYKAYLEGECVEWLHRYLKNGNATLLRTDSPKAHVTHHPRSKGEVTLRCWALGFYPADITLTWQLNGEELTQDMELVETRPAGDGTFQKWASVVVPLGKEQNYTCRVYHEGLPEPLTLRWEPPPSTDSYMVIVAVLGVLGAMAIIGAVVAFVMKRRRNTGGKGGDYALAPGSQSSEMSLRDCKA

H-2 D^d = H-2 D^d (Mus musculus, UniProt P01900); assay type: binding
Chain of H-2 D^d (P01900 whole entry, looked up): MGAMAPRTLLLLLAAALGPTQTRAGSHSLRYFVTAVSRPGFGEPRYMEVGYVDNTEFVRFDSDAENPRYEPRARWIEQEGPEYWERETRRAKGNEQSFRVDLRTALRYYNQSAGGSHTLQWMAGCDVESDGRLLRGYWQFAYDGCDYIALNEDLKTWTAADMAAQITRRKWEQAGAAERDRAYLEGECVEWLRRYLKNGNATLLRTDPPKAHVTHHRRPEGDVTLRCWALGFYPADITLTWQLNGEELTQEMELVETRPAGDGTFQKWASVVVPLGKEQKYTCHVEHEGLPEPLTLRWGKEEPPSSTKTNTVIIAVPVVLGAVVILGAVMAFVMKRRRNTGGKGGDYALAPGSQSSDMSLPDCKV

H-2 K^k = H-2 K^k (Mus musculus, UniProt P04223); assay type: binding
Chain of H-2 K^k (P01887 21-119): as the sequence (P01887 21-119) above
Chain of H-2 K^k (P04223 22-369): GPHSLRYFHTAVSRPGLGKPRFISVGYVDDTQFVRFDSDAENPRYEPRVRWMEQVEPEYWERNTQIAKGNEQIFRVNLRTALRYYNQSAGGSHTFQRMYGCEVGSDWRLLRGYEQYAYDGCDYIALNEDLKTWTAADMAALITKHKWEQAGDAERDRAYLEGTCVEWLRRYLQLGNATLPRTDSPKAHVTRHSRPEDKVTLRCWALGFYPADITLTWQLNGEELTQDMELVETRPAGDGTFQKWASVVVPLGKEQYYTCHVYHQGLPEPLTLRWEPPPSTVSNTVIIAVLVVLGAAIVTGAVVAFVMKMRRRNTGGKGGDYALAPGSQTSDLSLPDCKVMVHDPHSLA

HLA A*0201 = HLA A*0201 (Homo sapiens, UniProt P04439, D140Y/D185E/D98H/E176V/E277Q/G131W/G231S/I119V/I121R/I166T/I218V/L300P/L318F/N151K/N90K/P208A/P217A/Q86G/Q94H/R138H/R169H/T345S); conditions: positional scanning combinatorial 9-mer library; normalized to 1.0 for the best residue at each position

Sequence | Normalized average relative binding affinity (ARB), HLA A*3001 (HLA A*3001) | Normalized average relative binding affinity (ARB), HLA A*3201 (HLA A*3201) | Normalized average relative binding affinity (ARB), HLA A*6802 (HLA A*6802) | Normalized average relative binding affinity (ARB), HLA B*0702 (HLA B*0702) | Normalized average relative binding affinity (ARB), HLA B*0801 (HLA B*0801) | Normalized average relative binding affinity (ARB), HLA B*1501 (HLA B*1501) | Normalized average relative binding affinity (ARB), HLA B*1503 (HLA B*1503) | Normalized average relative binding affinity (ARB), HLA B*2705 (HLA B*2705) | Normalized average relative binding affinity (ARB), HLA B*3501 (HLA B*3501) | Normalized average relative binding affinity (ARB), HLA B*5101 (HLA B*5101) | Normalized average relative binding affinity (ARB), HLA B*5301 (HLA B*5301) | Normalized average relative binding affinity (ARB), HLA B*5401 (HLA B*5401) | Normalized average relative binding affinity (ARB), HLA B*5801 (HLA B*5801) | Normalized average relative binding affinity (ARB), HLA B*5802 (HLA B*5802) | Normalized average relative binding affinity (ARB), H-2 Db (H-2 D^b) | Normalized average relative binding affinity (ARB), H-2 Dd (H-2 D^d) | Normalized average relative binding affinity (ARB), H-2 Kk (H-2 K^k) | Normalized average relative binding affinity (ARB), HLA A*0201 (HLA A*0201)
XYXXXXXXX [3064.0040] | 0.46 | 0.032 | 0.017 | 0.0050 | 0.066 | 0.028 | 0.017 | 0.0026 | 0.012 | 0.053 | 0.0053 | 0.0039 | 0.029 | 0.030 | 0.071 | 0.013 | 0.0099 | 0.0078
XEXXXXXXX [3064.0024] | 0.025 | 0.031 | 0.0068 | 0.0028 | 0.038 | 0.20 | 0.11 | 0.0016 | 0.021 | 0.041 | 0.021 | 0.0026 | 0.0066 | 0.066 | 0.036 | 0.014 | 1.0 | 0.030
XXIXXXXXX [3064.0048] | 0.020 | 0.60 | 0.38 | 0.12 | 0.15 | 1.0 | 0.17 | 0.22 | 0.16 | 0.39 | 0.26 | 0.083 | 0.77 | 1.0 | 0.24 | 0.0041 | 0.26 | 0.54
KXXXXXXXX [3064.0009] | 0.49 | 1.0 | 0.013 | 0.37 | 0.039 | 0.39 | 0.46 | 0.26 | 0.050 | 0.052 | 0.0057 | 0.037 | 1.0 | 1.0 | 0.14 | 0.18 | 0.082 | 0.11
